Data set [1] concerns the target T1, PARP1 (Homo sapiens, UniProt P09874).
T1 construct: purchased BPS Bioscience (San Diego, CA)
Put plainly: PARP1 colorimetric activity assay kit (BPS Bioscience). The class given is biochemical. The note with it: for inhibition at 1 µM: read-out: PARP1 % inhibition at 1 µM, 1 µM compound, triplicate (n = 3); for IC50: dose-response, mean (n = 3) ± SD, r^2 in brackets; for PARP1 inhibitory potency in words: compared with 3l. As to the method:
(§1) The thirty-six 1-oxo-3,4-dihydroisoquinoline-4-carboxamides 3a-aj and 1-oxoisoquinoline-4-carboxamide 11 were tested for inhibitory activity towards PARP1 and PARP2 using the commercially available colorimetric activity assay kit from BPS Bioscience (San Diego, CA) in full accordance of the supplier’s method description[13]^,[14]. The initial screening was performed against PARP1 at 1 µM concentration of each compound, in triplicate (n = 3) measurements.

In data set [2] the target is T2, PARP2 (Homo sapiens, UniProt Q9UGN5).
T2 construct: purchased BPS Bioscience (San Diego, CA)
T2 sequence (Q9UGN5 whole entry): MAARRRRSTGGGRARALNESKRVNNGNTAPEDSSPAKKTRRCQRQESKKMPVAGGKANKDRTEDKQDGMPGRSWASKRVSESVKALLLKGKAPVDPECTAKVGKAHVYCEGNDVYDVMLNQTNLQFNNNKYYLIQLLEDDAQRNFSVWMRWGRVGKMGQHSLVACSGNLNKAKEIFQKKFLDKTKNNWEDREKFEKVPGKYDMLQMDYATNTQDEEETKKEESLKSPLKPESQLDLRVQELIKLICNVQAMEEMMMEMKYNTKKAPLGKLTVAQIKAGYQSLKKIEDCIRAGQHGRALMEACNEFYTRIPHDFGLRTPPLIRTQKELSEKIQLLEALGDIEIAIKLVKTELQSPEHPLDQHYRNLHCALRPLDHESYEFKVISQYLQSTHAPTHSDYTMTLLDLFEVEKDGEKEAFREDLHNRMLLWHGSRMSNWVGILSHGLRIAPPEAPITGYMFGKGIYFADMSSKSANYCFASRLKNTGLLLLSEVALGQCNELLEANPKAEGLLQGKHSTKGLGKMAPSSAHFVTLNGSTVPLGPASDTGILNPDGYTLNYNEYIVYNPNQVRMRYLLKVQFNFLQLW
The experiment in a line: PARP2 colorimetric activity assay kit (BPS Bioscience). Particulars: for IC50: dose-response, mean (n = 3) ± SD, r^2 in brackets. The format is biochemical. On the procedure:
as §1

Entries after “also recorded” stand apart in the source; their conditions may differ.

T1 sequence (P09874 whole entry): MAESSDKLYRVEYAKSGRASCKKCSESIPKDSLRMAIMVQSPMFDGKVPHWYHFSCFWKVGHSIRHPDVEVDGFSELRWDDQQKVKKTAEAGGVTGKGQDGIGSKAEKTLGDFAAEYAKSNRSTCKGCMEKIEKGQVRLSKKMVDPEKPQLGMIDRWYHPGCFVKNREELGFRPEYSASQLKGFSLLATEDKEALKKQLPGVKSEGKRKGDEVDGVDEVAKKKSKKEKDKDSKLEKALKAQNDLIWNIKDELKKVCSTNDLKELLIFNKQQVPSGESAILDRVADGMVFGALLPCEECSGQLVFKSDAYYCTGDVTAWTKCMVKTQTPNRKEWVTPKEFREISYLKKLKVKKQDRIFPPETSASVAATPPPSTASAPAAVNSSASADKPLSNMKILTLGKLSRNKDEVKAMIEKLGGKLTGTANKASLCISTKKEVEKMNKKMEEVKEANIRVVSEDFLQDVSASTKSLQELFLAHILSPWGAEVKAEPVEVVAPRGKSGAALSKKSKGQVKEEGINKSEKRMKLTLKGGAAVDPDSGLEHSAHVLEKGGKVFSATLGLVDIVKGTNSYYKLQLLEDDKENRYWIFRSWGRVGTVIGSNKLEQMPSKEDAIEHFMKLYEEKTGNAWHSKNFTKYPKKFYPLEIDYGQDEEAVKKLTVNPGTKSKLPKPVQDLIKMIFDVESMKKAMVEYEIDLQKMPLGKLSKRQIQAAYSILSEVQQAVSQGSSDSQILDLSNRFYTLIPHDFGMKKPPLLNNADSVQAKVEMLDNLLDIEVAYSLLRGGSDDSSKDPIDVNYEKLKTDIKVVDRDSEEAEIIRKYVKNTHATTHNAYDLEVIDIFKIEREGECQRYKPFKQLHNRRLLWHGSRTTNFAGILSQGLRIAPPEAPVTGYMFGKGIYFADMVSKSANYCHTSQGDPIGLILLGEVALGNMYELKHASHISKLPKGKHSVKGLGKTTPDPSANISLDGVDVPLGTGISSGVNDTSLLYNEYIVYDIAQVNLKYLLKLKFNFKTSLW

As to `CCOC(=O)N1CCN(C(=O)C2CNC(=O)c3ccccc32)CC1` (centres unmarked) [Compound 3a, Ethyl 4–(1-oxo-1,2,3,4-tetrahydroisoquinoline-4-carbonyl)piperazine-1-carboxylate], the inhibition at 1 µM in data set [1] turned out to be 26.3 ± 7.7%.

Regarding `O=C1NCC(C(=O)N2CCC(N3CCC(F)(F)CC3)CC2)c2ccc(F)cc21` (centres unmarked) [Compound 3ah, 4–(4,4-Difluoro-[1,4'-bipiperidine]-1'-carbonyl)-7-fluoro-3,4-dihydroisoquinolin-1(2H)-one], in data set [1], the IC50 was determined as 371 ± 42 nM and the inhibition at 1 µM was 81.9 ± 1.8%. In data set [2], the “SI, selectivity index (PARP2 over PARP1)” value is reported as 4.46 and the IC50 worked out at 83.1 ± 6.9 nM.

As to `O=C1NCC(C(=O)N2CCC(N3CCC(F)CC3)CC2)c2ccc(F)cc21` (centres unmarked) [Compound 3ai, 7-Fluoro-4–(4-fluoro-[1,4'-bipiperidine]-1'-carbonyl)-3,4-dihydroisoquinolin-1(2H)-one], in data set [1], the IC50 amounted to 148 ± 17 nM and the inhibition at 1 µM came out at 93.7 ± 0.8%. In addition, in data set [2], the “SI, selectivity index (PARP2 over PARP1)” value amounted to 3.52 and the IC50 was found to be 42 ± 2.3 nM.

`CC1CCN(C(=O)C2CNC(=O)c3ccccc32)CC1` (centres unmarked) [Compound 3b, 4–(4-Methylpiperidine-1-carbonyl)-3,4-dihydroisoquinolin-1(2H)-one]: in data set [1], the inhibition at 1 µM turned out to be 42.7 ± 0.9%.

`CN(Cc1ccccc1)C(=O)C1CNC(=O)c2ccccc21` (centres unmarked) [Compound 3c, N-Benzyl-N-methyl-1-oxo-1,2,3,4-tetrahydroisoquinoline-4-carboxamide] displayed a melting point of 148 to 149 °C. In addition, in data set [1], the inhibition at 1 µM is 18.6 ± 13.2%.

On to `O=C1NCC(C(=O)NCc2ccc(Cl)cc2)c2ccccc21` (centres unmarked) [Compound 3d, N-(4-Chlorobenzyl)-1-oxo-1,2,3,4-tetrahydroisoquinoline-4-carboxamide], for which the inhibition at 1 µM in data set [1] was found to be 7.4 ± 8.7%.

As for `O=C1NCC(C(=O)N2CCc3ccccc3C2)c2ccccc21` (centres unmarked) [Compound 3e, 4–(1,2,3,4-Tetrahydroisoquinoline-2-carbonyl)-3,4-dihydroisoquinolin-1(2H)-one], the melting point is 222 to 223 °C. For the same compound, in data set [1], the inhibition at 1 µM came out at 56 ± 7.5%.

In the case of `CCN1CCN(C(=O)C2CNC(=O)c3ccccc32)CC1` (centres unmarked) [Compound 3f, 4–(4-ethylpiperazine-1-carbonyl)-3,4-dihydroisoquinolin-1(2H)-one], the inhibition at 1 µM in data set [1] came to 26.2 ± 9.7%.

`CCOC(=O)C1CCN(C(=O)C2CNC(=O)c3ccccc32)CC1` (centres unmarked) [Compound 3g, Ethyl 1–(1-oxo-1,2,3,4-tetrahydroisoquinoline-4-carbonyl)piperidine-4-carboxylate] displayed a melting point of 120 to 121 °C. Besides, in data set [1], the inhibition at 1 µM was 47.6 ± 4.1%.

Consider `CN1CCN(C(=O)C2CNC(=O)c3ccccc32)CC1` (centres unmarked) [Compound 3h, 4–(4-Methylpiperazine-1-carbonyl)-3,4-dihydroisoquinolin-1(2H)-one], for which the melting point fell in the range of 163 to 164 °C. Besides, in data set [1], the inhibition at 1 µM was found to be 27.3 ± 6%.

Turning to `Cc1ccc(S(=O)(=O)N2CCN(C(=O)C3CNC(=O)c4ccccc43)CC2)cc1` (centres unmarked) [Compound 3i, 4–(4-Tosylpiperazine-1-carbonyl)-3,4-dihydroisoquinolin-1(2H)-one], the melting point lay in the range of 228 to 229 °C. The inhibition at 1 µM in data set [1] came to 28.9 ± 5.5%.

As for `O=C1NCC(C(=O)N2CCOCC2)c2ccccc21` (centres unmarked) [Compound 3j, 4-(Morpholine-4-carbonyl)-3,4-dihydroisoquinolin-1(2H)-one], the inhibition at 1 µM in data set [1] came out at 57.6 ± 5.8%.

On to `O=C1NCC(C(=O)N2CCC(Cc3ccccc3)CC2)c2ccccc21` (centres unmarked) [Compound 3k, 4–(4-Benzylpiperidine-1-carbonyl)-3,4-dihydroisoquinolin-1(2H)-one], for which the melting point was 191 to 192 °C. For the same compound, the inhibition at 1 µM in data set [1] was found to be 45.1 ± 1.7%.

Regarding `O=C1NCC(C(=O)N2CCCC2)c2ccccc21` (centres unmarked) [Compound 3m, 4-(Pyrrolidine-1-carbonyl)-3,4-dihydroisoquinolin-1(2H)-one], in data set [1], the inhibition at 1 µM worked out at 31.2 ± 3.4%.

In the case of `O=C1NCC(C(=O)N2CCCCCC2)c2ccccc21` (centres unmarked) [Compound 3n, 4-(Azepane-1-carbonyl)-3,4-dihydroisoquinolin-1(2H)-one], in data set [1], the inhibition at 1 µM stood at 35.4 ± 5.1%.

`O=C1NCC(C(=O)N2CCSCC2)c2ccccc21` (centres unmarked) [Compound 3o, 4-(Thiomorpholine-4-carbonyl)-3,4-dihydroisoquinolin-1(2H)-one] displayed a melting point of 171 to 172 °C. In addition, the inhibition at 1 µM in data set [1] came out at 47.4 ± 3.7%.

For the compound `O=C1NCC(C(=O)NCc2ccc(F)cc2)c2ccccc21` (centres unmarked) [Compound 3p, N-(4-Fluorobenzyl)-1-oxo-1,2,3,4-tetrahydroisoquinoline-4-carboxamide], the melting point is 188 to 189 °C. Moreover, the inhibition at 1 µM in data set [1] was 27.2 ± 4.3%.

Compound `COc1ccccc1N1CCN(C(=O)C2CNC(=O)c3ccccc32)CC1` (centres unmarked) [Compound 3q, 4–(4-(2-Methoxyphenyl)piperazine-1-carbonyl)-3,4-dihydroisoquinolin-1(2H)-one] showed a melting point of 155 to 156 °C. The inhibition at 1 µM in data set [1] amounted to 32.9 ± 2.4%.

Turning to `O=C1NCC(C(=O)N2CCC3(CCCCO3)CC2)c2ccccc21` (centres unmarked) [Compound 3r, 4–(1-Oxa-9-azaspiro[5.5]undecane-9-carbonyl)-3,4-dihydroisoquinolin-1(2H)-one], the inhibition at 1 µM in data set [1] is 28.5 ± 7.1%.

Regarding `O=C1NCC(C(=O)NCc2ccc(N3CCCCC3)cc2)c2ccccc21` (centres unmarked) [Compound 3s, 1-oxo-N-(4-(piperidin-1-yl)benzyl)-1,2,3,4-tetrahydroisoquinoline-4-carboxamide], the melting point is 235 to 236 °C. Besides, the inhibition at 1 µM in data set [1] was determined as 12.5 ± 8.5%.

Turning to `O=C1NCC(C(=O)N2CCN(Cc3ccc(F)cc3)CC2)c2ccccc21` (centres unmarked) [Compound 3t, 4–(4–(4-Fluorobenzyl)piperazine-1-carbonyl)-3,4-dihydroisoquinolin-1(2H)-one], the inhibition at 1 µM in data set [1] is 43.3 ± 5.9%.

In the case of `O=C1NCC(C(=O)N2CCN(Cc3ccccc3F)CC2)c2ccccc21` (centres unmarked) [Compound 3u, 4–(4-(2-Fluorobenzyl)piperazine-1-carbonyl)-3,4-dihydroisoquinolin-1(2H)-one], the inhibition at 1 µM in data set [1] was 31.9 ± 2%.

As to `O=C1NCC(C(=O)N2CCC(N3CCOCC3)CC2)c2ccccc21` (centres unmarked) [Compound 3v, 4–(4-Morpholinopiperidine-1-carbonyl)-3,4-dihydroisoquinolin-1(2H)-one], in data set [1], the “PARP1 inhibitory potency in words” value is “significantly less potent; also recorded: inactive” and the inhibition at 1 µM came out at 33.2 ± 4.8%.

Regarding `O=C1NCC(C(=O)N2CCNCC2)c2ccccc21` (centres unmarked) [Compound 3w, 4-(Piperazine-1-carbonyl)-3,4-dihydroisoquinolin-1(2H)-one], in data set [1], the inhibition at 1 µM is 66.9 ± 1.5%.

Regarding `O=C1NCC(C(=O)N2CCN(C3CCCC3)CC2)c2ccccc21` (centres unmarked) [Compound 3x, 4–(4-Cyclopentylpiperazine-1-carbonyl)-3,4-dihydroisoquinolin-1(2H)-one], the melting point lay in the range of 177 to 178 °C. The inhibition at 1 µM in data set [1] came out at 44.6 ± 2.9%.

The compound `O=C1NCC(C(=O)N2CCN(C3CCCCC3)CC2)c2ccccc21` (centres unmarked) [Compound 3y, 4–(4-Cyclohexylpiperazine-1-carbonyl)-3,4-dihydroisoquinolin-1(2H)-one] registered a melting point of 197 to 198 °C. For the same compound, in data set [1], the “PARP1 inhibitory potency in words” value is on record as “significantly less potent” and the inhibition at 1 µM stood at 54.5 ± 4.6%. For the same compound, the “PARP1 inhibitory potency in words” value in data set [1] (listed as 3 y) was “inactive”.
